The record followed here is patent US12187683B2, “Benzoindazolone compound and intermediate thereof” (LMITO THERAPEUTICS INC., priority 2019, dated 2025).

Structures are written as SMILES.

NQO1, sequence (P15559 whole entry, species assumed): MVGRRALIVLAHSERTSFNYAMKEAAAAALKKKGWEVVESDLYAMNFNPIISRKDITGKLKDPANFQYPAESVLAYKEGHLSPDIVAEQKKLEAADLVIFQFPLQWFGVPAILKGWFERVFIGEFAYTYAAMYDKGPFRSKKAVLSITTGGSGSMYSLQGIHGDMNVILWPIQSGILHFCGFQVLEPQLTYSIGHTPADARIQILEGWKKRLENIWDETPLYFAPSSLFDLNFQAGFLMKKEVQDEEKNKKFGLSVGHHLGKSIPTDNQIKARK

One experiment addresses NQO1 (Homo sapiens, UniProt P15559). The experiment is described as follows: In vitro NQO1 enzyme activity assay (cytochrome C reduction, absorbance at 550 nm). Type of experiment: biochemical. To be noted: Table 1; NQO1 2 ng, Compound 5 μM; control 196. The procedure:
In order to evaluate the activity of synthesized compound in NQO1, the experiments were conducted as follows:
The synthesized compound was dissolved in DMSO to make a 10 mM stock solution, which was further diluted with DMSO to 250 μM so as to prepare a working solution. For experimental groups, the working solution of the compound was added to an enzyme reaction solution in which 50 μL of 1.54 mM Cytochrome C solution was added to 900 μL of 50 mM Tris-HCl (pH7.5) containing 0.14% BSA. For negative control groups, DMSO not containing the compound of the invention was added to the enzyme reaction solution as above. For each experimental and control group, 20 μL of 100 ng/mL NQO1 protein was added. Next, 10 μL of 20 mM NADH was added to bring up the volume to 1 mL. The change of absorbance was measured at 550 nm for 10 minutes using 1 mL cuvette. The kinetics of reaction was measured with the increase of absorbance as the cytochrome C was reduced at 550 nm over 10 minutes. The activity of NQO1 was measured by the amount of cytochrome C that is being reduced (nmol cytochrome C that was reduced/min/ug NQO1 protein).
Absorption coefficient of Cytochrome C: 21.1 (μmol/mL)^−1 cm^−1
Equipment=Cary 100 UV-Vis Spectrophotometer
For `O=C1C(=O)c2c(n(-c3ccccc3)[nH]c2=O)-c2ccccc21` [Compound 1, 1-phenyl-1H-benzo[g]indazol-3,4,5(2H)-trione], the “NQO1 activity (nmol of reduced Cytochrome C/min/μg NQO1 protein)” value is 180 nmol of reduced Cytochrome C/min/μg NQO1 protein.
The same measure, in the same setting: the value for `COc1nn(-c2ccccc2)c2c1C(=O)C(=O)c1ccccc1-2` [Compound 6, 3-methoxy-1-phenyl-1H-benzo[g]indazol-4,5-dione] was 7706 nmol of reduced Cytochrome C/min/μg NQO1 protein; that for `CC(C)n1c(=O)c2c(n1C)-c1ccccc1C(=O)C2=O` [Compound 3, 2-isopropyl-1-methyl-1H-benzo[g]indazol-3,4,5(2H)-trione] was 3066 nmol of reduced Cytochrome C/min/μg NQO1 protein.
Same read-out and setting: to `Cn1c(=O)c2c(n1-c1ccccc1)-c1ccccc1C(=O)C2=O` [Compound 5, 2-methyl-1-phenyl-1H-benzo[g]indazol-3,4,5(2H)-trione] belongs 2602 nmol of reduced Cytochrome C/min/μg NQO1 protein.

Still in this experiment, the particulars now being: Table 2; NQO1 2 ng, Compound 0.2 μM; control 96.
As for `CC(C)CCOc1nn(-c2ccccc2)c2c1C(=O)C(=O)c1ccccc1-2` [Compound 12, 3-(isopentyloxy)-1-phenyl-1H-benzo[g]indazol-4,5-dione], the “NQO1 activity (nmol of reduced Cytochrome C/min/μg NQO1 protein)” value was 2981 nmol of reduced Cytochrome C/min/μg NQO1 protein.
`CC(C)n1c2c(c(=O)n1C)C(=O)C(=O)c1ccccc1-2` [Compound 16, 1-isopropyl-2-methyl-1H-benzo[g]indazol-3,4,5(2H)-trione]: the “NQO1 activity (nmol of reduced Cytochrome C/min/μg NQO1 protein)” value is listed as 4441 nmol of reduced Cytochrome C/min/μg NQO1 protein.
Still for that read-out and setting: the value for `CC(C)n1c(=O)c2c(n1-c1ccccc1)-c1ccccc1C(=O)C2=O` [Compound 13, 2-isopropyl-1-phenyl-1H-benzo[g]indazol-3,4,5(2H)-trione] was 2137 nmol of reduced Cytochrome C/min/μg NQO1 protein; that for `CC(C)Cn1c(=O)c2c(n1-c1ccccc1)-c1ccccc1C(=O)C2=O` [Compound 9, 2-isobutyl-1-phenyl-1H-benzo[g]indazol-3,4,5(2H)-trione] was 2474 nmol of reduced Cytochrome C/min/μg NQO1 protein.
On the same count and under the same terms, the value for `COc1nn(-c2ccccc2)c2c1C(=O)C(=O)c1ccccc1-2` [Compound 6, 3-methoxy-1-phenyl-1H-benzo[g]indazol-4,5-dione] was 3782 nmol of reduced Cytochrome C/min/μg NQO1 protein; that for `COc1nn(-c2ccc(C(F)(F)F)cc2)c2c1C(=O)C(=O)c1ccccc1-2` [Compound 18, 3-methoxy-1-(4-(trifluoromethyl)phenyl)-1H-benzo[g]indazol-4,5-dione] was 4232 nmol of reduced Cytochrome C/min/μg NQO1 protein.
Same read-out and setting: the value for `CCOc1nn(-c2ccccc2)c2c1C(=O)C(=O)c1ccccc1-2` [Compound 8, 3-ethoxy-1-phenyl-1H-benzo[g]indazol-4,5-dione] was 3768 nmol of reduced Cytochrome C/min/μg NQO1 protein; that for `CCn1c(=O)c2c(n1-c1ccccc1)-c1ccccc1C(=O)C2=O` [Compound 7, 2-ethyl-1-phenyl-1H-benzo[g]indazol-3,4,5(2H)-trione] was 2246 nmol of reduced Cytochrome C/min/μg NQO1 protein.
For `CC(C)COc1nn(-c2ccccc2)c2c1C(=O)C(=O)c1ccccc1-2` [Compound 10, 3-isobutoxy-1-phenyl-1H-benzo[g]indazol-4,5-dione], the “NQO1 activity (nmol of reduced Cytochrome C/min/μg NQO1 protein)” value was 3455 nmol of reduced Cytochrome C/min/μg NQO1 protein.
The same measure, in the same setting: to `CC(C)Oc1nn(-c2ccccc2)c2c1C(=O)C(=O)c1ccccc1-2` [Compound 2, 3-isopropoxy-1-phenyl-1H-benzo[g]indazol-4,5-dione] belongs 3531 nmol of reduced Cytochrome C/min/μg NQO1 protein; to `COc1nn(-c2ccc(F)cc2)c2c1C(=O)C(=O)c1ccccc1-2` [Compound 19, 1-(4-fluorophenyl)-3-methoxy-1H-benzo[g]indazol-4,5-dione], 4303 nmol of reduced Cytochrome C/min/μg NQO1 protein; to `CC(C)CCn1c(=O)c2c(n1-c1ccccc1)-c1ccccc1C(=O)C2=O` [Compound 11, 2-isopentyl-1-phenyl-1H-benzo[g]indazol-3,4,5(2H)-trione], 2839 nmol of reduced Cytochrome C/min/μg NQO1 protein.

Still in this experiment, the particulars now being: Table 3; NQO1 2 ng, Compound 0.2 μM; control 74.
Take `Cn1c(=O)c2c(n1-c1ccccc1)-c1ccc(F)cc1C(=O)C2=O` [Compound 21, 7-fluoro-2-methyl-1-phenyl-1H-benzo[g]indazol-3,4,5(2H)-trione]: the “NQO1 activity (nmol of reduced Cytochrome C/min/μg NQO1 protein)” value is on record as 1095 nmol of reduced Cytochrome C/min/μg NQO1 protein.
As to `COc1nn(C(C)C)c2c1C(=O)C(=O)c1ccccc1-2` [Compound 17, 1-isopropyl-3-methoxy-1H-benzo[g]indazol-4,5-dione], the “NQO1 activity (nmol of reduced Cytochrome C/min/μg NQO1 protein)” value is 4488 nmol of reduced Cytochrome C/min/μg NQO1 protein.
Still for that read-out and setting: the value for `COc1nn(-c2ccccc2)c2c1C(=O)C(=O)c1cc(F)ccc1-2` [Compound 22, 7-fluoro-3-methoxy-1-phenyl-1H-benzo[g]indazol-4,5-dione] was 5360 nmol of reduced Cytochrome C/min/μg NQO1 protein; that for `COc1nn(-c2ccccc2)c2c1C(=O)C(=O)c1ccccc1-2` [Compound 6, 3-methoxy-1-phenyl-1H-benzo[g]indazol-4,5-dione] was 2905 nmol of reduced Cytochrome C/min/μg NQO1 protein; that for `Cn1c2c(c(=O)n1-c1ccccc1)C(=O)C(=O)c1ccccc1-2` [Compound 20, 1-methyl-2-phenyl-1H-benzo[g]indazol-3,4,5(2H)-trione] was 436 nmol of reduced Cytochrome C/min/μg NQO1 protein.

The same experiment, now with this note: Table 4; NQO1 2 ng, Compound 0.2 μM; control 10.
As for `COc1nn(-c2ccccc2)c2c1C(=O)C(=O)c1cc([N+](=O)[O-])ccc1-2` [Compound 23, 3-methoxy-7-nitro-1-phenyl-1H-benzo[g]indazol-4,5-dione], the “NQO1 activity (nmol of reduced Cytochrome C/min/μg NQO1 protein)” value is on record as 393 nmol of reduced Cytochrome C/min/μg NQO1 protein.
On the same count and under the same terms, the value for `COc1nn(-c2ccccc2)c2c1C(=O)C(=O)c1ccccc1-2` [Compound 6, 3-methoxy-1-phenyl-1H-benzo[g]indazol-4,5-dione] was 3261 nmol of reduced Cytochrome C/min/μg NQO1 protein; that for `COc1nn(-c2ccccc2)c2c1C(=O)C(=O)c1cc(Br)ccc1-2` [Compound 25, 7-bromo-3-methoxy-1-phenyl-1H-benzo[g]indazol-4,5-dione] was 1445 nmol of reduced Cytochrome C/min/μg NQO1 protein; that for `COc1nn(-c2ccccc2)c2c1C(=O)C(=O)c1cc(N)ccc1-2` [Compound 24, 7-amino-3-methoxy-1-phenyl-1H-benzo[g]indazol-4,5-dione] was 3739 nmol of reduced Cytochrome C/min/μg NQO1 protein.
